Results taken from publication PMC5216056 (Nature Communications, 2017).
Where two headings read alike, the source gives them in different places.

How the values were obtained:
[1] = molecular target: T1, hCB1R (Homo sapiens, UniProt P21554); assay: cell-based; type: cell-based
T1 construct: host or cells: CHO

[2] = system: AEA cellular uptake in HMC-1 cells; assay: cells; type: cell-based, human; settings: read-out: AEA reuptake IC50 (95% CI) HMC-1 cells; FAAH-deficient cells
[3] = molecular target: T2, Rat recombinant TRPM8 (Rattus norvegicus, UniProt Q8R455); assay: TRP channel [Ca2+]i assay; type: cell-based; settings: read-out: TRPM8 IC50 for antagonism of icilin
T2 construct: expressed in transfected cells; host or cells: HEK293 (TRPM8-HEK-293, gift from Mario van der Stelt)
T2 sequence (Q8R455 whole entry): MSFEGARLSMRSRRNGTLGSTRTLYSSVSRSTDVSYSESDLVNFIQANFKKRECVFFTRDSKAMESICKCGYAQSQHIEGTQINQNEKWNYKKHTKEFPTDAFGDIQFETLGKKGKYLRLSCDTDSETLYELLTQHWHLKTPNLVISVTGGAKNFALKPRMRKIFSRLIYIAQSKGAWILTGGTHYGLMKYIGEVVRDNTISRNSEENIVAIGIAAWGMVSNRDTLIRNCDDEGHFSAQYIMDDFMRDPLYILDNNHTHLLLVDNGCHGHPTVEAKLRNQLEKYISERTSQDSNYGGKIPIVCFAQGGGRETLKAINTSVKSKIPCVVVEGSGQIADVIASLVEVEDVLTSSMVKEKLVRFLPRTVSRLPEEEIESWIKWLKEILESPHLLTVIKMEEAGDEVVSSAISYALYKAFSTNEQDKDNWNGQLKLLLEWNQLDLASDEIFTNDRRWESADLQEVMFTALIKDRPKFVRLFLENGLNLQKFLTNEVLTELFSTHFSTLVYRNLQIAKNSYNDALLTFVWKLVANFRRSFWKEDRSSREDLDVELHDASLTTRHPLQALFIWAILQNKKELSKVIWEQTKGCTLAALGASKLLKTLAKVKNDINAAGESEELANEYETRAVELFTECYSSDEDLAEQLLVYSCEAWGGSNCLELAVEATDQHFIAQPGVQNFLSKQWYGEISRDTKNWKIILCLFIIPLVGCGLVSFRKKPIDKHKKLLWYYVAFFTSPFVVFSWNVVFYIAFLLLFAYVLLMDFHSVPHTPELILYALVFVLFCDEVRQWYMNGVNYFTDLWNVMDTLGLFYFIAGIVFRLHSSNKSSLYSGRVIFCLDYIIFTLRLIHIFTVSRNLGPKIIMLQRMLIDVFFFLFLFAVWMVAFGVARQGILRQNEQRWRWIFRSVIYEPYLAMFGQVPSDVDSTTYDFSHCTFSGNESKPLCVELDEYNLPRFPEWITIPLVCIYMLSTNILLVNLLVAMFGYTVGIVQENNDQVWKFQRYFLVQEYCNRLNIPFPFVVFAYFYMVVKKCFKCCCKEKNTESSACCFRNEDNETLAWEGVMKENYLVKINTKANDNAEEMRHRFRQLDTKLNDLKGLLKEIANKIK

[4] = molecular target: T3, Rat recombinant TRPV3 (Rattus norvegicus, UniProt Q4QYD9); assay: cell-based; type: cell-based; settings: for IC50: vs thymol 100μM, read-out: TRPV3 IC50 for antagonism or desensitization
T3 construct: expressed in transfected cells; host or cells: HEK293 (TRPV3-HEK-293, gift from HB Bradshaw, Indiana University)
T3 sequence (Q4QYD9 1-791): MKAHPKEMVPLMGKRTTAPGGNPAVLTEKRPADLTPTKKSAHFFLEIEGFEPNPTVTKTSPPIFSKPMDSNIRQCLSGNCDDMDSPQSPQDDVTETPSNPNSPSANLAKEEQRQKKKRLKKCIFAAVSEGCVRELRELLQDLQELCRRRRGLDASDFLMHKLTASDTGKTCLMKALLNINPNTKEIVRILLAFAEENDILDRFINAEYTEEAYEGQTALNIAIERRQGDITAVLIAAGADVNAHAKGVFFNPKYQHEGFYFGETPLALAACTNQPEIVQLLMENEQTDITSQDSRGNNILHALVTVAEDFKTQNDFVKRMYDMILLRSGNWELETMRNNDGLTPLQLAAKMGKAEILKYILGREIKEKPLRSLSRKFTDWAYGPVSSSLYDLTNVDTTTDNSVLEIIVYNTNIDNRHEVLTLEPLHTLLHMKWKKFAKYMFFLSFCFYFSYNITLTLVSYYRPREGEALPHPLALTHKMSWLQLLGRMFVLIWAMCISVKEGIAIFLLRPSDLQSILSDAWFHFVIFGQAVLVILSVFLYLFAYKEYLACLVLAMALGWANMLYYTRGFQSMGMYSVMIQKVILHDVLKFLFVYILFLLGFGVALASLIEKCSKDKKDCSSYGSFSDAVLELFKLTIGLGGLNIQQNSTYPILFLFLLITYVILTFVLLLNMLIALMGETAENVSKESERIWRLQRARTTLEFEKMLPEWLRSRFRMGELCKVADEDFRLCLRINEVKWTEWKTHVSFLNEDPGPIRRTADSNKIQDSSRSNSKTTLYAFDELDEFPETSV

[5] = molecular target: T4, Rat recombinant TRPV4 (Rattus norvegicus, UniProt Q9ERZ8); assay: cell-based; type: cell-based; settings: for IC50: vs 4αPDD 1μM, read-out: TRPV4 IC50 for desensitization
T4 construct: expressed in transfected cells; host or cells: HEK293 (TRPV4-HEK-293, gift from HB Bradshaw, Indiana University)

[6] = molecular target: T5, beta 1 (h) (Homo sapiens, UniProt P08588); assay: biochemical; type: binding; settings: 10 µM
T5 construct: CEREP
T5 sequence (P08588 whole entry): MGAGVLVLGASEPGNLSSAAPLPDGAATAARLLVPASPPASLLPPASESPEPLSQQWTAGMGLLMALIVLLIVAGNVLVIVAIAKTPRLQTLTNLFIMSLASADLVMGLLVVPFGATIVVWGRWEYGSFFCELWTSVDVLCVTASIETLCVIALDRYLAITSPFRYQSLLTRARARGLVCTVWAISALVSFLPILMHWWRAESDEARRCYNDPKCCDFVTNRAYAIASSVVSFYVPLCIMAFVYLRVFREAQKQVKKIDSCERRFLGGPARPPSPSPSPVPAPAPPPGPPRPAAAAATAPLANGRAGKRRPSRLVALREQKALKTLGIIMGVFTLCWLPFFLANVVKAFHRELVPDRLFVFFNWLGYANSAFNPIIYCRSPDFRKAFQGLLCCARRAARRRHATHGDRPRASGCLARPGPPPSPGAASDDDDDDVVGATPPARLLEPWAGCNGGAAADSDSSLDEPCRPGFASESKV

[7] = system: Ca2+ channel (L, diltiazem site); assay: CEREP panel; type: binding; settings: 10 µM
[8] = molecular target: T6, mu (MOP) (h) (Homo sapiens, UniProt P35372); assay: CEREP panel; type: binding; settings: 10 µM
T6 construct: CEREP (contract assay)
T6 sequence (P35372 whole entry): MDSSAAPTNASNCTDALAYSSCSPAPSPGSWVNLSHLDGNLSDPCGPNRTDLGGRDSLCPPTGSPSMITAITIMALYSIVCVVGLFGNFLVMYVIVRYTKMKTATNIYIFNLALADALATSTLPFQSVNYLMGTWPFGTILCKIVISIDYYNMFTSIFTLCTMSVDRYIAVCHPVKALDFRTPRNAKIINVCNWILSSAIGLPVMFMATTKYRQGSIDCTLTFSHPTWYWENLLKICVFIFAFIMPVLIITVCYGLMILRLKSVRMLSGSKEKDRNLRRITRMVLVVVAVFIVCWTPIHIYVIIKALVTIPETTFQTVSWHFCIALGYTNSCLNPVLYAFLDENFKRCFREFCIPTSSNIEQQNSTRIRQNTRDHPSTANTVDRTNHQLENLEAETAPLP

[9] = molecular target: T7, N muscle-type (h) (Homo sapiens, UniProt P02708+P07510+P11230+Q07001); assay: CEREP panel; type: binding; settings: for % inhibition N muscle-type (h): 10 µM
T7 construct: CEREP (contract assay)
T7 sequence (P02708 21-457): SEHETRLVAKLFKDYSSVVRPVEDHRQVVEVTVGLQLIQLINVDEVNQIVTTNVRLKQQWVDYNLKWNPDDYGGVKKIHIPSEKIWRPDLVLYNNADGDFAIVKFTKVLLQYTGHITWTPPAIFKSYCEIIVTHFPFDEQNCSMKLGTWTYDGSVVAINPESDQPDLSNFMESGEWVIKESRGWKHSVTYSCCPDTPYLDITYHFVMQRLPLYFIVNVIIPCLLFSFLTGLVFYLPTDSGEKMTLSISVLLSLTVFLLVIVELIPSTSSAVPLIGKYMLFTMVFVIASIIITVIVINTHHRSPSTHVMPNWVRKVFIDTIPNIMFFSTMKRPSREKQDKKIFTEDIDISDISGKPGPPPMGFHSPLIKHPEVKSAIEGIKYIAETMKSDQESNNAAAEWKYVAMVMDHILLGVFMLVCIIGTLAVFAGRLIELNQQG
T7 sequence (P11230 24-501): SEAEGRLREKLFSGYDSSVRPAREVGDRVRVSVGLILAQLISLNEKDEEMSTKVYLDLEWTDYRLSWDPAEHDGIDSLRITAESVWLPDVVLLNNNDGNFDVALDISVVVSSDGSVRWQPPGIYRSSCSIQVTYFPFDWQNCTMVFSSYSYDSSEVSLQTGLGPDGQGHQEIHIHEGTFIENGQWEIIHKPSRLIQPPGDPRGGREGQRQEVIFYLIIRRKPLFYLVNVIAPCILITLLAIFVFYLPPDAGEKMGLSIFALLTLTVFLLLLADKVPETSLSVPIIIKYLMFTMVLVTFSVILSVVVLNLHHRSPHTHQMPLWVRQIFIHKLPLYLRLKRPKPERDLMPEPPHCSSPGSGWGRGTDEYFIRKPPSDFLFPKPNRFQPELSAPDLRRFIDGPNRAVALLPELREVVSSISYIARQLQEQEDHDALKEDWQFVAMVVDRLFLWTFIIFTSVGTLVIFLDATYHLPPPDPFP
T7 sequence (Q07001 22-517): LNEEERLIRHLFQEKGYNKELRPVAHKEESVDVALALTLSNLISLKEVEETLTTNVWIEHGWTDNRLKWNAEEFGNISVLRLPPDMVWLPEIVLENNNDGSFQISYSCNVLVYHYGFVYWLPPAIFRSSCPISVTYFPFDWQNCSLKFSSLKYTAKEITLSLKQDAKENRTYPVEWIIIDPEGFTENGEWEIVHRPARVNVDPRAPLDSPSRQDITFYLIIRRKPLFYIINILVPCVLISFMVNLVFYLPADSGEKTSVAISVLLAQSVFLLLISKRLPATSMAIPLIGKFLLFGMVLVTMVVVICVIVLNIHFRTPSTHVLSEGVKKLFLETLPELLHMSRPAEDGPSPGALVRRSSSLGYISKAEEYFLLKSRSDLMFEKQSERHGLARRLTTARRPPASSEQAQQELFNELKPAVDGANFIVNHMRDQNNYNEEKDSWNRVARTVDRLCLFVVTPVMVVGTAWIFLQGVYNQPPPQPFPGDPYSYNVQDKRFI
T7 sequence (P07510 23-517): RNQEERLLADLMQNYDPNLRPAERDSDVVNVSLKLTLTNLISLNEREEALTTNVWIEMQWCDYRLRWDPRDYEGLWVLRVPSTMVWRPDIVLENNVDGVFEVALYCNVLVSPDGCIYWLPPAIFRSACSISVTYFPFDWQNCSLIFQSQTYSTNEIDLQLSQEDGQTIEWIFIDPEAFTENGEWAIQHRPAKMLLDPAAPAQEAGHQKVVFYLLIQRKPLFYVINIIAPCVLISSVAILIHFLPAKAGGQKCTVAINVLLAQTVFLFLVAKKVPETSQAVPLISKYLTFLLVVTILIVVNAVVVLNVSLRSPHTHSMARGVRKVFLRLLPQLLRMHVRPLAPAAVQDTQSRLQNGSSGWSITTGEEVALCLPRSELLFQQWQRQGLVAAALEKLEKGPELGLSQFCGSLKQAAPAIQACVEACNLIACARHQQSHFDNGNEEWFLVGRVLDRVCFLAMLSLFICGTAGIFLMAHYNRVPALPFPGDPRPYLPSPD

[10] = 1 μM
[11] = 1 μM; remark: listed apart in the source
[12] = 1 μM; remark: listed apart in the source
[13] = molecular target: T8, hCB2R (Homo sapiens, UniProt P34972); assay: cell-based; type: cell-based; design: expressed in transfected cells; host or cells: Flp-In-293 (Invitrogen #R750-07), pcDNA5/FRT
T8 sequence (P34972 whole entry): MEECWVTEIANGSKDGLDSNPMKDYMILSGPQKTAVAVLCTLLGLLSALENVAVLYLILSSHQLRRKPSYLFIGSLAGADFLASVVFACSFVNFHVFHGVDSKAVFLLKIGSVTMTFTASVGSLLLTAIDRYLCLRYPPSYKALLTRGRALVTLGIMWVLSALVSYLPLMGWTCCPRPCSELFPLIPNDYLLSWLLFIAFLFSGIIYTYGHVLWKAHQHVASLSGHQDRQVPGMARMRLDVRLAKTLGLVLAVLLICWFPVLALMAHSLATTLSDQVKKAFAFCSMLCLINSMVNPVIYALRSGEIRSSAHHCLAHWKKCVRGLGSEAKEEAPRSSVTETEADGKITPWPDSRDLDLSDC

[14] = molecular target: T8, hCB2R; design: expressed in transfected cells; host or cells: Flp-In-293 (Invitrogen #R750-07), pcDNA5/FRT
[15] = molecular target: T9, hGPR55 (Homo sapiens, UniProt Q9Y2T6); assay: cell-based; settings: β-arrestin recruitment
T9 construct: host or cells: CHO-K1 (PathHunter hGPR55_bgal)
T9 sequence (Q9Y2T6 whole entry): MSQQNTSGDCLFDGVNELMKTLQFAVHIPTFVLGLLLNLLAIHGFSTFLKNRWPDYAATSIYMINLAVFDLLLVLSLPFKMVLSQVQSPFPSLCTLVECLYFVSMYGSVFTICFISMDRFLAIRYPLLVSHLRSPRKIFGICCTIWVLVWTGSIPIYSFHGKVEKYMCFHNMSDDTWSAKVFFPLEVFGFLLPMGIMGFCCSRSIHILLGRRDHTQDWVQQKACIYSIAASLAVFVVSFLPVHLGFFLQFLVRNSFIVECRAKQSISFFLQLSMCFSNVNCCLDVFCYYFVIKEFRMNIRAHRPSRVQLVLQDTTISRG

With `CN1CCCC[C@H]1Cn1cc(C(=O)c2cc([N+](=O)[O-])ccc2I)c2ccccc21` [(S)-AM1241] the “Emax ± SEM pERK hCB1R” value [1] was 17 ± 3, the “pEC50 ± SEM pERK hCB1R” value [1] was < 4 and the IC50 [2] was > 5 µM. The IC50 ([3]; vs icilin […]) was > 50 µM, the “TRPV3 Efficacy (% ionomycin 4μM)” value [4] was 16.2% and the EC50 ([4]; read-out: TRPV3 Potency EC50) was 9 µM. For the same compound, the IC50 [4] was > 50 µM, the “TRPV4 Efficacy (% ionomycin 4μM)” value [5] was < 10% and the IC50 [5] was 8.6 ± 0.3 µM. The “% inhibition beta 1 (h)” value [6] was 14%, the “% inhibition Ca2+ channel (L, diltiazem site)” value (from here on “% inhibition Ca2+ channel”) [7] was 90% and the “% inhibition mu (MOP) (h)” value [8] was 46%. For the same compound, the “% inhibition N muscle-type (h)” value [9] was 38%, the CL microsomes mouse [10] was 640 µL/min/mg protein and the CL hepatocytes human [11] was 37 µL/min/mio cells. For the same compound, the CL hepatocytes mouse [12] was 251 µL/min/mio cells, the “pEC50 ± SEM GIRK hCB2R” value [13] was 5.6 ± 0.14 and the “Emax ± SEM GIRK hCB2R” value ([13]; normalized to CP55940) was 68 ± 13%. The “GIRK-GTPγS bias factor (BF)” value ([14]; hCB2R) was 0.16, the “GIRK-GTPγS ΔΔlogR” value ([14]; hCB2R) was -0.79 and the “LogR GIRK” value ([14]; hCB2R) was 5.70. For the same compound, the “LogR GTPγS” value ([14]; hCB2R) was 6.9, the “LogR pERK” value ([14]; hCB2R) was 7.54 and the “LogR β-AR” value ([14]; hCB2R) was 5.97. For the same compound, the “pERK-GIRK bias factor (BF)” value ([14]; hCB2R) was 4.72, the “pERK-GIRK ΔΔlogR” value ([14]; hCB2R) was 0.68 ± 0.37 and the “pERK-GTPγS bias factor (BF)” value ([14]; hCB2R) was 0.77. For the same compound, the “pERK-GTPγS ΔΔlogR” value ([14]; hCB2R) was -0.11, the “β-AR-GIRK bias factor (BF)” value ([14]; hCB2R) was 0.43 and the “β-AR-GIRK ΔΔlogR” value ([14]; hCB2R) was -0.37 ± 0.33. The “β-AR-GTPγS bias factor (BF)” value ([14]; hCB2R) was 0.07, the “β-AR-GTPγS ΔΔlogR” value ([14]; hCB2R) was -1.16 ± 0.57 and the “β-AR-pERK bias factor (BF)” value ([14]; hCB2R) was 0.09. For the same compound, the “β-AR-pERK ΔΔlogR” value ([14]; hCB2R) was -1.05 ± 0.44, the “ΔLogR GIRK” value ([14]; hCB2R, reference CP55940) was -2.17 and the “ΔLogR GTPγS” value ([14]; hCB2R, reference CP55940) was -1.38. For the same compound, the “ΔLogR pERK” value ([14]; hCB2R, reference CP55940) was -1.49, the “ΔLogR β-AR” value ([14]; hCB2R, reference CP55940) was -2.54 and the “RE GIRK” value ([14]; hCB2R, relative effectiveness) was 0.01. For the same compound, the “RE GTPγS” value ([14]; hCB2R, relative effectiveness) was 0.04, the “RE pERK” value ([14]; hCB2R, relative effectiveness) was 0.03 and the “RE β-AR” value ([14]; hCB2R, relative effectiveness) was 0.003.
With `COc1ccc(C(=O)c2c(C)n(CCN3CCOCC3)c3cc(I)ccc23)cc1` [AM630] the “GPR55 pEC50 (± SEM)” value [15] was < 5, the IC50 [2] was > 10 µM and the IC50 ([3]; vs icilin 0.1μM (second value in cell)) was 1.9 ± 0.1 µM. For the same compound, the IC50 ([3]; vs icilin […]) was 4.3 ± 0.3 µM, the “TRPV3 Efficacy (% ionomycin 4μM)” value [4] was < 10% and the IC50 [4] was > 100 µM. For the same compound, the “TRPV4 Efficacy (% ionomycin 4μM)” value [5] was < 10%, the IC50 [5] was 3.2 ± 0.1 µM and the “% inhibition beta 1 (h)” value [6] was 9%. For the same compound, the “% inhibition Ca2+ channel” value [7] was -11%, the “% inhibition mu (MOP) (h)” value [8] was 21% and the “% inhibition N muscle-type (h)” value [9] was 5%. The CL microsomes mouse [10] was 468 µL/min/mg protein, the CL hepatocytes human [11] was 16 µL/min/mio cells and the CL hepatocytes mouse [12] was 101 µL/min/mio cells. The “pEC50 ± SEM GIRK hCB2R” value [13] was 5.82 ± 0.08.
In the case of `CCCCCCC(C)(C)c1ccc([C@@H]2C[C@H](O)CC[C@H]2CCCO)c(O)c1` [CP55940], the EC50 ([15]; read-out: GPR55 pEC50 (± SEM) (converted)) is reported as > 10 µM, the inhibition at 10 µM ([6]; read-out: % inhibition beta 1 (h)) is reported as 14% and the “% inhibition Ca2+ channel” value [7] is reported as -7%. The inhibition at 10 µM ([8]; read-out: % inhibition mu (MOP) (h)) was 57%, the inhibition at 10 µM [9] was -4% and the “GIRK-GTPγS bias factor (BF)” value [14] was 1.00. The “GIRK-GTPγS ΔΔlogR” value [14] was 0 ± 0.34, the “GIRK-cAMP bias factor (BF)” value [14] was 1.00 and the “GIRK-cAMP ΔΔlogR” value [14] was 0 ± 0.12. For the same compound, the “GTPγS-cAMP bias factor (BF)” value [14] was 1.00, the “GTPγS-cAMP ΔΔlogR” value [14] was 0 ± 0.34 and the “LogR GIRK” value [14] was 7.863. The “RE GIRK” value [14] was 1.00, the “RE GTPγS” value [14] was 1.00 and the “RE cAMP” value [14] was 1.00. For the same compound, the “RE pERK” value [14] was 1.00, the “RE β-AR” value [14] was 1.00 and the “pERK-GIRK bias factor (BF)” value [14] was 1.00. For the same compound, the “pERK-GIRK ΔΔlogR” value [14] was 0 ± 0.25, the “pERK-GTPγS bias factor (BF)” value [14] was 1.00 and the “pERK-GTPγS ΔΔlogR” value [14] was 0 ± 0.41. For the same compound, the “pERK-cAMP bias factor (BF)” value [14] was 1.00, the “pERK-cAMP ΔΔlogR” value [14] was 0 ± 0.26 and the “ΔLogR GIRK” value [14] was 0 ± 0.07. The “ΔLogR GTPγS” value [14] was 0 ± 0.33, the “ΔLogR cAMP” value [14] was 0 ± 0.09 and the “ΔLogR pERK” value [14] was 0 ± 0.24. The “ΔLogR β-AR” value [14] was 0 ± 0.07, the “β-AR-GIRK bias factor (BF)” value [14] was 1.00 and the “β-AR-GIRK ΔΔlogR” value [14] was 0 ± 0.1. The “β-AR-GTPγS bias factor (BF)” value [14] was 1.00, the “β-AR-GTPγS ΔΔlogR” value [14] was 0 ± 0.34 and the “β-AR-cAMP bias factor (BF)” value [14] was 1.00. For the same compound, the “β-AR-cAMP ΔΔlogR” value [14] was 0 ± 0.12, the “β-AR-pERK bias factor (BF)” value [14] was 1.00 and the “β-AR-pERK ΔΔlogR” value [14] was 0 ± 0.25.
